These results are taken from patent US20230340037A1, “INHIBITORS OF ?-SYNUCLEIN AGGREGATION AND USES THEREOF” (U[…] DE BARCELONA, priority 2020, published 2023).

In series [1] the target is T1, a-synuclein monomer (Homo sapiens, UniProt P37840, N122C).
T1 construct: made in house; host or cells: Escherichia coli BL21 (DE3), pET21a
Description: dcFCCS and smFRET analysis of binding to a-synuclein monomer. The following applies: peptide labeled with Atto647N. The protocol: (§1) The relative binding affinities of inhibitors of the present disclosure to toxic a-synuclein oligomers, a-synuclein fibrils, and monomeric a-synuclein can be determined via […] (dcFCCS) as follows.
(§2) Dual-Colour FCCS (dcFCCS) experiments are performed on a Time-Resolved Fluorescence confocal microscope (e.g., MT200 from PicoQuant, Berlin, Germany) with a Time-Correlated Single Photon Counting (TCSPC) unit. Pulsed Interleaved Excitation (PIE) is used at laser powers of 6 μW (481 nm) and 5 μW (637 nm) measured after the dichroic mirror for optimal count rates while avoiding photobleaching and saturation. The coverslip is placed directly on the immersion water on top of the objective (e.g., Super Apochromat 60×NA 1.2 objective with a correction collar). The dichroic 488/640 nm is chosen as the main beam splitter. A 50 μm pinole is used. The emission light beam is split by a 50/50 beamsplitter into 2 detection paths. […] The software is also used for fitting the FCS and FCCS data as well as for a PIE-FRET analysis of the data from which the FRET efficiency (E) is calculated.
(§3) The binding of inhibitors of the present disclosure to toxic a-synuclein oligomers, a-synuclein fibrils, and monomeric a-synuclein can be determined via Förster resonance energy transfer (smFRET) as follows. […]

The target of series [2] is T2, a-synuclein fibrils (Homo sapiens, UniProt P37840, N122C).
T2 construct: made in house; host or cells: Escherichia coli BL21 (DE3), pET21a
Description: dcFCCS and smFRET analysis of binding to a-synuclein fibrils. The following applies: peptide labeled with Atto647N; cross-correlation signal and smFRET events. On the procedure:
as §1, §2, §3

The target in series [3] is T3, toxic a-synuclein oligomer (type B*) (Homo sapiens, UniProt P37840, N122C).
T3 construct: made in house; host or cells: Escherichia coli BL21 (DE3), pET21a
In words: dcFCCS and smFRET analysis of binding to toxic a-synuclein oligomer. The following applies: peptide labeled with Atto647N; cross-correlation signal and smFRET events. On the procedure: as §1, §2, §3

Series [4] addresses T4, a-synuclein (Homo sapiens, UniProt P37840).
T4 construct: made in house; host or cells: Escherichia coli BL21 (DE3), pET21a
In words: a-synuclein aggregation kinetics assay (thioflavin-T). In kind it is biochemical. The following applies: 70 μM a-synuclein, Th-T, equimolar and substoichiometric peptide concentrations, 32 h. On the procedure:
a-synuclein aggregation can be monitored as described in Pujols et al., 2018. Specifically, inhibition of in vitro a-synuclein aggregation at equimolar concentrations of a-synuclein and the tested inhibitor can be determined as follows:
A 96 well microtiter plate is prepared to contain, in each well, a Teflon polyball (3.175 mm in diameter, e.g., from Polysciences Europe GmbH, Eppelheim, Germany) and 150 μl of PBS containing 70 μM a-synuclein (prepared from diluting the 0.22 μm-filtered 210 μM a-synuclein solution described in example 1), 40 μM thioflavin-T and 70 μM of the tested inhibitor. 150 μl/well of PBS containing 70 μM a-synuclein and 40 μM thioflavin-T is used as a control. […] Every two hours, the fluorescence intensity is measured (e.g. using a Victor3.0 Multilabel Reader, PerkinElmer Waltham, MA, USA) by exciting the mixtures at 430-450 nm and measuring the emission intensity at 480-510 nm. […]
Parallel wells (e.g. triplicates) are prepared for each tested inhibitor and the control. For the measurement of each time interval, the measured fluorescence intensity of the respective parallel wells is averaged and then normalized to the maximum fluorescence of the control (a-synuclein without inhibitor) and fitted to the Finke-Watzky curve, accounting for fibril elongation and secondary nucleation. […]

Series [5] has as its system SH-SY5Y neuroblastoma cells. In words: Toxic a-synuclein oligomer induced increase of intracellular reactive oxygen species. It counts as cell-based, human. On the procedure:
A stock solution of 80 μM toxic a-synuclein oligomer (prepared as described in example 3) and a stock solution of 80 μM toxic a-synuclein oligomer and 80 μM of the tested inhibitor are prepared in PBS and incubated for 15 min at 20° C. before being added to cell-containing wells as described below.
Human SH-SY5Y neuroblastoma cells (ATCC, #CRL-2266) cultured in growth medium (Eagle's Minimum Essential Medium (EMEM) supplemented with 10% […] (FBS)) are seeded onto a glass slide mounted with 8 removable wells (e.g., Nunc Lab-Tek II Chamber Slide System, #154941) with 0.5 mL cells/well at 0.5×10^6 cells/mL in growth medium for 24 h at 37° C. and 5% C02. […]
Then, a fluorogenic reagent for oxidative stress detection in live cells (e.g., a CellRox® reagent from Invitrogen, Carlsbad, USA, such as CellRox® Green) is added (final concentration of CellRox® Green 5 μM). […] The intracellular fluorescence of the treated SH-SY5Y cells is then analyzed with a confocal microscope (e.g. a Leica TCS SP5, Leica Microsystems, Wetzlar, Germany, with a HCX PL APO 63×1.4 oil immersion objective) equipped with a camera, using wave lengths for excitation and detection which are suitable for the used oxidative stress detection agent (for CellRox® Green: excitation at 488 nm and detection at 515-560 nm). […] ROS fluorescence are calculated from mean of 100 cells.

The target of series [6] is T5, non-toxic a-synuclein oligomer (type A*) (Homo sapiens, UniProt P37840, N122C).
T5 construct: made in house; host or cells: Escherichia coli BL21 (DE3), pET21a
In words: dcFCCS and smFRET analysis of binding to non-toxic a-synuclein oligomer. The following applies: peptide labeled with Atto647N.

Take LL-37: the “interaction with a-synuclein monomer” value in series [1] is given as “not”. Also, in series [2], the “interaction with a-synuclein fibrils” value is “interact with”. For the same molecule, the “interaction with toxic a-synuclein oligomer” value in series [3] is given as “interact with”. The “inhibition of a-synuclein aggregation” value in series [4] is “inhibit a-synuclein aggregation”. In series [5] (coincubated with a-synuclein toxic oligomers, 10 μM), the “generation of reactive oxygen species” value is listed as “reduce the generation of reactive oxygen species”. In addition, the “interaction with non-toxic a-synuclein oligomer” value in series [6] was “not”.

With `CSCC[C@H](N)C(=O)N[C@@H](CCC(=O)O)C(=O)N[C@@H](Cc1ccccc1)C(=O)N[C@H](C(=O)N[C@@H](C)C(=O)N[C@@H](CCCCN)C(=O)N[C@@H](CC(C)C)C(=O)N[C@@H](Cc1ccccc1)C(=O)N[C@@H](CCCCN)C(=O)N[C@@H](Cc1ccccc1)C(=O)N[C@@H](Cc1ccccc1)C(=O)N[C@@H](CCCCN)C(=O)N[C@@H](CC(=O)O)C(=O)N[C@@H](CC(C)C)C(=O)N[C@@H](CC(C)C)C(=O)NCC(=O)N[C@@H](CCCCN)C(=O)N[C@@H](Cc1ccccc1)C(=O)N[C@@H](CC(C)C)C(=O)NCC(=O)N[C@@H](CC(N)=O)C(=O)N[C@@H](CC(N)=O)C(=O)O)C(C)C` [PSMα3], the “cytotoxicity of toxic aS oligomers” value in series [5] (neuroblastoma cell culture) is “reduced cytotoxicity”.
